Key:
UGT1A1 = tested on: UGT1A1; parameters: species or system patients; conditions: UGT1A1*28 and *60; population model ref 24
[1] = cited from earlier work
[2] = no reference given; cited from earlier work

| SMILES | model-predicted clearance versus number of variant copies of UGT1A1 (UGT1A1) | half-life [1] | dose excreted unchanged renally [2] [%] |
| --- | --- | --- | --- |
| O=C(/C=C/c1cccc(S(=O)(=O)Nc2ccccc2)c1)NO [belinostat] | decreasing trend with the number of variant copies of UGT1A1 | ~ 1 h | – |
| COc1cc([C@@H]2c3cc4c(cc3[C@@H](O[C@@H]3O[C@@H]5CO[C@@H](C)O[C@H]5[C@H](O)[C@H]3O)[C@H]3COC(=O)[C@H]23)OCO4)cc(OC)c1O [etoposide] | – | – | 56 |

Source: paper PMC6631369 (Anti-cancer drugs, 2018)
